The values that follow come from patent US20250136595A1, “ACYLATED HETEROCYCLIC QUINAZOLINE DERIVATIVES AS INHIBITORS OF ERBB2” (Enliven Inc., priority 2022, published 2025).

Counter-ions that a name gives are not always drawn.

In assay [1] the target is T1, phosphorylated EGFR (pEGFR) (Homo sapiens, UniProt P00533).
T1 construct: performed to measure phosphorylated EGFR levels using A431 cells; endogenous in cells; host or cells: A431
The assay can be described thus: Detection of phosphorylated EGFR (pEGFR) in EGF-stimulated A431 cells (AlphaLISA). As to conditions: A431 cells (10% FBS), 4 hours incubation, EGF 30 ng/mL for 10 minutes. It is filed as cell-based. The method, then: Enzyme-linked immunosorbent assays (ELISA) were performed to measure phosphorylated EGFR levels using A431 cells (10% FBS). A431 (1.0*10^4 cells/40 μl/well) cells were seeded in 384 well. Compounds were dissolved in DMSO, serially diluted in DMSO and then were added, mixed, and incubated for 4 hours at 37° C., 5% CO2. Following the 4-hours incubation, cells were stimulated for 10 minutes with EGF (Invitrogen, cat #PHG0311) at a final concentration of 30 ng/mL in the incubator. The media was aspirated and cells were lysed in 10 μL lysis buffer with protease and phosphatase inhibitors (PerkinElmer, cat #ALSU-PEGFR-A50K). The plates were placed on a shaker for 5 minutes and then incubated for 30 min at 4° C. for complete lysis. The lysate was transferred to an Optiplate (Perkin Elmer, cat #6007290).
Acceptor mix (PerkinElmer, cat #ALSU-PEGFR-A50K) was prepared just before use and 5 μL was dispensed to all the wells, followed by a 1.5-2 h incubation at room temperature in dark. The donor mix (PerkinElmer, cat #ALSU-PEGFR-A50K) was prepared under low light conditions prior to use and 5 μl of donor mix was added to all the wells under subdued lighting or green filters. The plates were placed on a shaker for 5 min, sealed, and incubated overnight at room temperature in dark. Plates were read on the Envision (PerkinElmer) using standard AlphaLISA settings.
The percentage of inhibition on EGFR phosphorylation was calculated following equation: % Inhibition=100×(LumHC−LumSample)/(LumHC−LumLC). The low and high controls (LC/HC) are generated from lysate from wells with cells treated with DMSO or […] Staurosporine (BioAustralis, cat #BIA-S1086), […]. IC50 values were calculated by fitting the Curve using XLfit (v5.3.1.3), equation 201: Y=Bottom+ (Top−Bottom)/(1+10^((LogIC50−X)*HillSlope)).
(Alpha assays give light when donor and acceptor beads are brought close together.)

For assay [2], the target named is T2, phosphorylated ERBB2 (pERBB2) (Homo sapiens, UniProt P04626).
T2 construct: endogenous in cells; host or cells: BT-474
The assay can be described thus: Detection of phosphorylated ERBB2 (pERBB2) by ELISA in BT-474 cells. It is filed as cell-based. The following applies: four hour incubation with compound. The method, then: BT-474 cells were seeded into a 96-well at 2.0*10^4 cells/100 μl/well. Compounds were dissolved and serially diluted in DMSO. The compounds were then were added, mixed, and incubated for four hours at 37° C., 5% CO2. Compounds were added using four-fold dilutions at final concentrations ranging from 10 μM to 0.01 nM. Following the four hour incubation with compounds, cell lysates were prepared. Plates were centrifuged for 5 min at 3000 RPM, and supernatant was removed from each well. Cells were washed 3 times by resuspension in 150 μl PBS, followed by centrifugation and removal of the supernatant, as above. […] Cells were incubated with lysis buffer for 1 hour at 4° C., and then stored at -80° C. Enzyme-linked immunosorbent assays (ELISA) were performed to measure phosphorylated ERBB2 levels. […] The next day, plates were washed with PBS+0.05% Tween20 (PBST). 150 μl of 5% BSA blocking solution was added for 1 hour at room temperature, with shaking. Plates were washed with PBST. Cell lysates were thawed and 100 μl of lysate was added to the ELISA plate. The plates were incubated for 2 hours at room temperature, with shaking. […] Plates were incubated for 1 hour at room temperature, with shaking. Plates were then washed with PBST, and 100 μl TMB substrate solution (R&D Systems, cat #DY999) was added. Plate were incubated in the dark for 20 minutes at room temperature. 50 μl of Stop solution (R&D Systems, cat #DY994) (50 μl) was added to each well and mixed. Optical density at 450 nm was read on an EnSpire plate reader (Perkin Elmer). The remaining kinase activity by calculated using the following formula: % Relative activity=100×([…]). The low and high control values (“LC” and “HC”) were generated from lysate from wells without cells or with cells treated with 0.1% DMSO, respectively.

Another assay concerns the target Ba/F3 ERBB2 YVMA (Homo sapiens, UniProt P04626, DUP772-775, cells depend on it). The assay can be described thus: Cell viability assay (CellTiter Glo) in Ba/F3 cells engineered to express ERBB2 YVMA. It is filed as cell-based, mouse. As to conditions: Ba/F3 cells expressing human ERBB2 YVMA mutant, 72 hours, % viability, read-out: Ba/F3 ERBB2 YVMA IC50. The procedure:
Cells were treated with compounds, and cell viability was measured as a metric of kinase inhibition.
The Ba/F3 cell line is IL-3-dependent mouse cell line derived from the C3H mouse strain. Ba/F3 cell lines were engineered to express human ERBB2 or EGFR kinases, rendering the cells IL-3 independent. The lines were generated via retroviral transduction utilizing a Moloney murine leukemia virus (MMLV) promoter, and constructs are stably integrated into the cell genome. The sequences of the ERBB2 and EGFR genes used were NCBI Reference Sequences NM_004448.3 and NM_005228.3, respectively.
Similarly, Ba/F3 cell lines engineered to express EGFR, ERBB2, or ERBB2 mutants were grown, harvested, counted and seeded at 3000 cells per well in 96-well plates for the data sets shown in Tables B3-B4. A subset of wells contained media only (low control, “LC”).
Table B1 provides the growth media and number of cells seeded per well for the each cell line.
Compounds were dissolved in DMSO and serially diluted. Serially-diluted compound or a DMSO only control (high control, “HC”) was added to the plated cells in each well. […] The final proportion of DMSO never exceeded 0.1%.
Plates were placed in a 37° C., 5% CO2 incubator for 72 hours. Plates were then removed from the incubator and equilibrated for 15 minutes at room temperature. 40 μl of CellTiter Glo reagent (Promega) was added to measure the relative level of metabolically active cells by quantifying intracellular ATP concentrations. Plates were incubated for 30 minutes at room temperature, and luminescence was measured. Percent viability was normalized to a vehicle control only using the following formula: % viability=100×(Lumsample−LumLC)/(LumHC−LumLC). Graphical curves were fitted using a nonlinear regression model with a sigmoidal dose response.
(In general: ATP-based viability assays read luminescence as a measure of living cells.)

One may read the IC50 as the concentration that inhibits the measured activity by half.

Sequence of Ba/F3 ERBB2 YVMA (P04626 with tags, fused parts or gaps DUP772-775): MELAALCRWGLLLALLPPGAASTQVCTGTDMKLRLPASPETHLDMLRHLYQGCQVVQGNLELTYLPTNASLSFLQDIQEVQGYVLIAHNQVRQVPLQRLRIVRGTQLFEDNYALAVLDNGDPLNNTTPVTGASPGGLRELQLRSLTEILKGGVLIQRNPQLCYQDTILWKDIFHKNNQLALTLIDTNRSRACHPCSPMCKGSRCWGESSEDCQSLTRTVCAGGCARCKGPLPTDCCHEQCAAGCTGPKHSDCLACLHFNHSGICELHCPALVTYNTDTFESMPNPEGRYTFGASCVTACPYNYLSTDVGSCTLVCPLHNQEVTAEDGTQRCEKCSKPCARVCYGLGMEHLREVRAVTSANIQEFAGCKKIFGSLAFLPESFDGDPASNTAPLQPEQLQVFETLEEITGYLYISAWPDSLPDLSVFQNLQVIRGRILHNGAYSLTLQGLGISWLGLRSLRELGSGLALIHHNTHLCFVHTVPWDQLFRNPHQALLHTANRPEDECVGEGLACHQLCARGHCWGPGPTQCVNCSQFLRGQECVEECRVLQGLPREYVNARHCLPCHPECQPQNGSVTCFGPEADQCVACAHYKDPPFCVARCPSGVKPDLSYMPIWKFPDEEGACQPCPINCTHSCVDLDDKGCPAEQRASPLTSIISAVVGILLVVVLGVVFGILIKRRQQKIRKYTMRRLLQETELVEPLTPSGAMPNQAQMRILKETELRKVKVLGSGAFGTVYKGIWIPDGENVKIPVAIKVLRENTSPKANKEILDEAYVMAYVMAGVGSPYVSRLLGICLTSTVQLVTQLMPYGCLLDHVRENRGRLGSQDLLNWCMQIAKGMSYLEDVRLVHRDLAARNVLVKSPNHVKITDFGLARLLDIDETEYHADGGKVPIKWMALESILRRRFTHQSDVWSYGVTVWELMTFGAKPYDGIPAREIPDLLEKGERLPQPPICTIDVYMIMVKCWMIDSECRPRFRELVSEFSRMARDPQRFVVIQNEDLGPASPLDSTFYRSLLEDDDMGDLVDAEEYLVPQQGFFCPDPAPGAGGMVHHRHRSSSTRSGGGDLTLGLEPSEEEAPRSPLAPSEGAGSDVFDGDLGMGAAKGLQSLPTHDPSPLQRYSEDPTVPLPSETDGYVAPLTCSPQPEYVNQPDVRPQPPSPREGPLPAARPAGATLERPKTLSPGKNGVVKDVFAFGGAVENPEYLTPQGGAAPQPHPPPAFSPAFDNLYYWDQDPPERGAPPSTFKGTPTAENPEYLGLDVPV
T1 sequence (P00533 25-1210): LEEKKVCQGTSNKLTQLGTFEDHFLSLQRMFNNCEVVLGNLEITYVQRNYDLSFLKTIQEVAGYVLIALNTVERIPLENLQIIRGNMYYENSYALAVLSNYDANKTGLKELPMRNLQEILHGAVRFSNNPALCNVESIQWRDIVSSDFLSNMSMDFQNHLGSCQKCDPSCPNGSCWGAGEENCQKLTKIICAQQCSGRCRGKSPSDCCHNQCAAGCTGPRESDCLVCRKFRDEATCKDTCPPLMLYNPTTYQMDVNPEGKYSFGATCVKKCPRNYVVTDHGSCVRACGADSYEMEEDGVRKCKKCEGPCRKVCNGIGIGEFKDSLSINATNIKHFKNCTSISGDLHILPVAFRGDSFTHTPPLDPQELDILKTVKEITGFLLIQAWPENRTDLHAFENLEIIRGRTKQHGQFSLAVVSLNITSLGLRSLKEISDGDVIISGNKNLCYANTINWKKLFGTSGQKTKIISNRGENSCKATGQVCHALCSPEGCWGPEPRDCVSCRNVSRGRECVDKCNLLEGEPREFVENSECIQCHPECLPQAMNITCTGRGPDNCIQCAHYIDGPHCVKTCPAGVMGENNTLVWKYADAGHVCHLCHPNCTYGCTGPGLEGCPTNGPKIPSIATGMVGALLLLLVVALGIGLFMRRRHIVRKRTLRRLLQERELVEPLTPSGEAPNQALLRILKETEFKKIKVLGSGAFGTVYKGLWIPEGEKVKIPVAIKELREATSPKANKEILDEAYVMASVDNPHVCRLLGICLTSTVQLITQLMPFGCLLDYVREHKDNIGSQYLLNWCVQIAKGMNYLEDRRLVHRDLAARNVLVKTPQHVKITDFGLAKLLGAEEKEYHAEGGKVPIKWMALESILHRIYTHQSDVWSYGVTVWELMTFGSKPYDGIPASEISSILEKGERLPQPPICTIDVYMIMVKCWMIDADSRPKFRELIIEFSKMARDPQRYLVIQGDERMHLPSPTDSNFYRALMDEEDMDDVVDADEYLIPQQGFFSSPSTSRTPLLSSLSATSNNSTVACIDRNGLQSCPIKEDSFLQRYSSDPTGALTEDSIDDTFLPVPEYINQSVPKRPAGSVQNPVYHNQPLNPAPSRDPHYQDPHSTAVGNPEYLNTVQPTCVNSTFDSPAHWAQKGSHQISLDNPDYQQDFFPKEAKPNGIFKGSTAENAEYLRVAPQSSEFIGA
T2 sequence (P04626 23-1255): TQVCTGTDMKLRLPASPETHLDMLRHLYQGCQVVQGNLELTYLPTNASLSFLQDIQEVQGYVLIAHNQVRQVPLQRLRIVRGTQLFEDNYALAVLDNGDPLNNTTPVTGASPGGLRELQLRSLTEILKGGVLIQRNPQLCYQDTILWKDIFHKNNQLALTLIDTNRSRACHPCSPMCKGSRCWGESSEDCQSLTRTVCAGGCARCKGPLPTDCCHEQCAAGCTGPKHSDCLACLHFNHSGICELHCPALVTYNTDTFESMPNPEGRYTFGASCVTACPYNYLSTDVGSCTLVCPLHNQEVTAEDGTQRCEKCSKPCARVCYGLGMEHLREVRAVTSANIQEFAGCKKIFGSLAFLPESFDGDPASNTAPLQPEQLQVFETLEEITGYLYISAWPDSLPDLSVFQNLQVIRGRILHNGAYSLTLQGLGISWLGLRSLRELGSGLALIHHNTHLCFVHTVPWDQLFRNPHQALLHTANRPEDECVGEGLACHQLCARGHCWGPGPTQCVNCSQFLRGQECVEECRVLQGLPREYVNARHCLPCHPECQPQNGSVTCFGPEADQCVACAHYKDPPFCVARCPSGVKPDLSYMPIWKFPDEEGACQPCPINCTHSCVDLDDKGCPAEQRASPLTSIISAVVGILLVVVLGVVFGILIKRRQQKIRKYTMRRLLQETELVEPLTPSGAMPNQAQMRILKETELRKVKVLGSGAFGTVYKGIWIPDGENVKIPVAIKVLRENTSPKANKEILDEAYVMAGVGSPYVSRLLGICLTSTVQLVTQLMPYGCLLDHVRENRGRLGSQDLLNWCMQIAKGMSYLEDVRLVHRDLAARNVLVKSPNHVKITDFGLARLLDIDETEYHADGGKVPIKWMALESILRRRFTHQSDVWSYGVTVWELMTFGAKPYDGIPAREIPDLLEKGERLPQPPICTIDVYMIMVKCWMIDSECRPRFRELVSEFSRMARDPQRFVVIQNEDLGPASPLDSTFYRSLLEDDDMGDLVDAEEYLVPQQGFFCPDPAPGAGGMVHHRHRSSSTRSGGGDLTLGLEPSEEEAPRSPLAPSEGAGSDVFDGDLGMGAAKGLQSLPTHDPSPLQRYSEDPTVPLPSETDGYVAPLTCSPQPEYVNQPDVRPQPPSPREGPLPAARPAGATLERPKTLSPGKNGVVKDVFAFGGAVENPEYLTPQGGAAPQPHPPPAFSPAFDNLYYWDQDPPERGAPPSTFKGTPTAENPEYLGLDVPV

In the case of `C=CC(=O)N1CCN(c2ccc3ncnc(Nc4ccc(Oc5ccn6ncnc6c5)c(C)c4)c3c2F)C(C)C1` (stereo not drawn) [Compound 114, 1-(4-{5-fluoro-4-[(3-methyl-4-{[1,2,4]triazolo[1,5-a]pyridin-7-yloxy}phenyl)amino]quinazolin-6-yl}-3-methylpiperazin-1-yl)prop-2-en-1-one], the results for the IC50 in assay [1] and in assay [2] were > 10 µM and 0.0459 µM, respectively. At Ba/F3 ERBB2 YVMA, the GI50 was 0.0539 µM.

Regarding `C=CC(=O)N1CCN(c2ccc3ncnc(Nc4ccc(Oc5ccc6c(c5)ncn6C)c(C)c4)c3c2)[C@@H](C)C1` [Compound 89, 1-[(3S)-3-methyl-4-[4-({3-methyl-4-[(1-methyl-1,3-benzodiazol-5-yl)oxy]phenyl}amino)quinazolin-6-yl]piperazin-1-yl]prop-2-en-1-one], the values for the IC50 in assay [1] and in assay [2] were 5.38 µM and 0.019 µM, respectively. The GI50 at Ba/F3 ERBB2 YVMA turned out to be 0.152 µM.

In the case of `C=CC(=O)N1CCN(c2ccc3ncnc(Nc4ccc(Cc5ccn6ncnc6c5)c(C)c4)c3c2)CC1` [Compound 81, 1-(4-(4-((4-([1,2,4]triazolo[1,5-a]pyridin-7-ylmethyl)-3-methylphenyl)amino)quinazolin-6-yl)piperazin-1-yl)prop-2-en-1-one], the IC50 in assay [1] is 2.36 µM; in assay [2], 0.011 µM. The GI50 on Ba/F3 ERBB2 YVMA stood at 0.0178 µM.

As for `C=CC(=O)N1CC[C@@H](Nc2ccc3ncnc(Nc4ccc(Oc5ccn6ncnc6c5)c(C)c4)c3n2)C1` [Compound 44, 1-[(3R)-3-({4-[(3-methyl-4-{[1,2,4]triazolo[1,5-a]pyridin-7-yloxy}phenyl)amino]pyrido[3,2-d]pyrimidin-6-yl}amino)pyrrolidin-1-yl]prop-2-en-1-one], the results for the IC50 in assay [1] and in assay [2] were 0.268 µM and 0.00633 µM, respectively. For the same compound, the GI50 on Ba/F3 ERBB2 YVMA came out at 0.00258 µM.

With `C=CC(=O)N1CCN(c2ccc3ncnc(Nc4ccc(Cc5ccn6ncnc6c5)c(C)c4)c3c2F)C(C)C1` (stereo not drawn) [Compound 79, 1-(4-(4-((4-([1,2,4]triazolo[1,5-a]pyridin-7-ylmethyl)-3-methylphenyl)amino)-5-fluoroquinazolin-6-yl)-3-methylpiperazin-1-yl)prop-2-en-1-one], the IC50 in assay [1] is > 10 µM; in assay [2] it was 1.6 µM. In addition, the GI50 on Ba/F3 ERBB2 YVMA was > 0.5 µM.

Regarding `C=CC(=O)N1CCN(c2ncc3ncnc(Nc4ccc(Oc5ccn6ncnc6c5)c(C)c4)c3n2)CC1` [Compound 45, 1-(4-{8-[(3-methyl-4-{[1,2,4]triazolo[1,5-a]pyridin-7-yloxy}phenyl)amino]pyrimido[5,4-d][1,3]diazin-2-yl}piperazin-1-yl)prop-2-en-1-one], the IC50 in assay [1] worked out at 0.667 µM; in assay [2], 0.00923 µM. The GI50 at Ba/F3 ERBB2 YVMA stood at 0.0045 µM.

`C=CC(=O)N1CC2CCC(C1)N2c1ccc2ncnc(Nc3ccc(Oc4ccc5c(c4)ncn5C)c(C)c3)c2n1` [Compound 73, 1-{8-[4-({3-methyl-4-[(1-methyl-1,3-benzodiazol-5-yl)oxy]phenyl}amino)pyrido[3,2-d]pyrimidin-6-yl]-3,8-diazabicyclo[3.2.1]octan-3-yl}prop-2-en-1-one]: the IC50 turned out to be 0.281 µM in assay [1] and 0.0325 µM in assay [2]. For the same compound, the GI50 at Ba/F3 ERBB2 YVMA was 0.029 µM.

For `Cc1cc(Nc2ncnc3ccc(N4CCN(C(=O)/C=C/CN(C)C)[C@H](C)C4)c(F)c23)ccc1Cc1ccn2ncnc2c1` [Compound 93, (2E)-4-(dimethylamino)-1-[(2R)-4-{5-fluoro-4-[(3-methyl-4-{[1,2,4]triazolo[1,5-a]pyridin-7-ylmethyl}phenyl)amino]quinazolin-6-yl}-2-methylpiperazin-1-yl]but-2-en-1-one formate], the IC50 is > 10 µM in assay [1] and 0.0307 µM in assay [2]. Besides, the GI50 on Ba/F3 ERBB2 YVMA stood at 0.049 µM.

As to `C=CC(=O)N1CCN(c2ccc3ncnc(Nc4ccc(Cc5ccn6ncnc6c5)c(C)c4)c3n2)CC1(C)C` [Compound 131, 1-(4-(4-((4-([1,2,4]triazolo[1,5-a]pyridin-7-ylmethyl)-3-methylphenyl)amino)pyrido[3,2-d]pyrimidin-6-yl)-2,2-dimethylpiperazin-1-yl)prop-2-en-1-one], the IC50 was 2.39 µM in assay [1] and 0.03 µM in assay [2]. Also, the GI50 on Ba/F3 ERBB2 YVMA is 0.02 µM.

Turning to `CC#CC(=O)N1CC2CC1CN2c1ccc2ncnc(Nc3ccc(Oc4ccn5ncnc5c4)c(C)c3)c2n1` (stereo not drawn) [Compound 30, 1-(5-(4-((4-([1,2,4]triazolo[1,5-a]pyridin-7-yloxy)-3-methylphenyl)amino)pyrido[3,2-d]pyrimidin-6-yl)-2,5-diazabicyclo[2.2.1]heptan-2-yl)but-2-yn-1-one], the IC50 in assay [1] was determined as 2.43 µM; in assay [2] it was 0.0614 µM. Besides, the GI50 on Ba/F3 ERBB2 YVMA came out at 0.0212 µM.

`C=CC(=O)N1CCN(c2ccc3ncnc(Nc4ccc(Cc5ccn6ncnc6c5)c(C)c4)c3c2)[C@@H](C)C1` [Compound 104, (S)-1-(4-(4-((4-([1,2,4]triazolo[1,5-a]pyridin-7-ylmethyl)-3-methylphenyl)amino)quinazolin-6-yl)-3-methylpiperazin-1-yl)prop-2-en-1-one]: the IC50 in assay [1] is > 10 µM; in assay [2] it was 0.0247 µM. The GI50 on Ba/F3 ERBB2 YVMA was found to be 0.0651 µM.

Take `C=CC(=O)N1CC2CC(C1)N2c1ccc2ncnc(Nc3ccc(Oc4ccn5ncnc5c4)c(C)c3)c2n1` [Compound 5, 1-(6-{4-[(3-methyl-4-{[1,2,4]triazolo[1,5-a]pyridin-7-yloxy}phenyl)amino]pyrido[3,2-d]pyrimidin-6-yl}-3,6-diazabicyclo[3.1.1]heptan-3-yl)prop-2-en-1-one]: the IC50 in assay [1] was 0.476 µM; in assay [2], 0.017 µM. Also, on Ba/F3 ERBB2 YVMA, the GI50 is 0.018 µM.

In the case of `C=CC(=O)N1CCN(c2ccc3ncnc(Nc4ccc(Oc5ccc(CC)nc5)c(C)c4)c3n2)CC1` [Compound 124, 1-(4-(4-((4-((6-ethylpyridin-3-yl)oxy)-3-methylphenyl)amino)pyrido[3,2-d]pyrimidin-6-yl)piperazin-1-yl)prop-2-en-1-one], the IC50 in assay [1] was determined as 2.58 µM; in assay [2] it was 0.138 µM. In addition, the GI50 on Ba/F3 ERBB2 YVMA worked out at 0.0359 µM.
